Legend:
FLT3D835Y = target: T1, FLT3D835Y (Homo sapiens, UniProt P36888, D835Y); assay: FLT3D835Y microfluidic kinase assay; type: biochemical
T1 construct: purchased Carna Biosciences
T1 sequence (P36888 27-993 D835Y): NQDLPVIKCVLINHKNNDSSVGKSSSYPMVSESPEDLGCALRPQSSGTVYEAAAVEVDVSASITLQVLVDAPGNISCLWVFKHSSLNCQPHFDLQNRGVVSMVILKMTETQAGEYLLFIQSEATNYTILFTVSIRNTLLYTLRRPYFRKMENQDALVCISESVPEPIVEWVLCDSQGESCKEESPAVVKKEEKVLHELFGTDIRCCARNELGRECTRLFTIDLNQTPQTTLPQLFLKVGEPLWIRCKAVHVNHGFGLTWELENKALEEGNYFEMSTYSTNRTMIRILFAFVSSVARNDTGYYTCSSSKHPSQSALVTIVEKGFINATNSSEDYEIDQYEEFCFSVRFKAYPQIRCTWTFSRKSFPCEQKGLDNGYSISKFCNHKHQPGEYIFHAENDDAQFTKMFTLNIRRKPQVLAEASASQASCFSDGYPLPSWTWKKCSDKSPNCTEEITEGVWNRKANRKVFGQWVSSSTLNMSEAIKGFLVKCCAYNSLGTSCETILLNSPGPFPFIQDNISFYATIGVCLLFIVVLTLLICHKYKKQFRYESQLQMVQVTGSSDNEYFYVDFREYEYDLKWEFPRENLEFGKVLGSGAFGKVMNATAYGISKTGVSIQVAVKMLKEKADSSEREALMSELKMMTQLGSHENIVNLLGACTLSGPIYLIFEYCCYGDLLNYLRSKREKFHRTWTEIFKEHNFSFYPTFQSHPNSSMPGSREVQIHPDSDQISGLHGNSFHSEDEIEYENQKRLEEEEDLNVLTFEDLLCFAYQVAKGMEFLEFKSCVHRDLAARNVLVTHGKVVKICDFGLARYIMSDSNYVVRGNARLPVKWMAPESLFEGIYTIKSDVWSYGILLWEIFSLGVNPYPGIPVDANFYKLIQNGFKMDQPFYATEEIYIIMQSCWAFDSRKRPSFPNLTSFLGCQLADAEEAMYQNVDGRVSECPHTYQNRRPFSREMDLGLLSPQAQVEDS
Method: Compounds were tested against FLT3, FLT3ITD and FLT3D835Y.
Assay Formats: FLT3 activity was determined in the reaction buffer 50 mM HEPES, 10 mM MgCl2 and 2 mM DTT by a microfluidic assay. The phosphorylation of a FAM labeled peptide substrate was monitored in the Caliper EZ Reader II (Perkin Elmer). The assay condition for each batch of enzyme (Carna Biosciences) was optimized to obtain 10% conversion rate of peptide substrate.
The test compounds were dissolved in DMSO to a stock concentration of 10 mM. 3-fold serially diluted compounds with top concentration of 5 μM were pre-incubated with FLT3, FLT3ITD or FLT3D835Y for 10 min at ambient temperature. The final DMSO concentration of assay mixture was 1%. […] The reaction was stopped by adding 50 mM EITA. The reaction time for FLT3, FLT3ITD and FLT3D8335Y was 30 min, 40 min and 40 min, respectively.
And the well without compound but with equivalent DMSO was defined as no inhibition. The percent inhibition was calculated by the following formula. % Inhibition=(Conversionmax−Conversionsample)/(Conversionmax−Conversionmin)*100 • Conversionmax means the conversion rate in the positive well without addition of compound • Conversionmin means the conversion rate in the well without addition of enzyme • Conversionsample means the conversion rate of test compounds
The dose-response (percent inhibition) curve was plotted and IC50 values were determined by GraphPad software.

JAK2 = target: T2, JAK2 (Homo sapiens, UniProt O60674); assay: JAK2 microfluidic kinase assay (Caliper EZ Reader II, FAM labeled peptide substrate); type: biochemical
T2 construct: purchased Carna Biosciences
T2 sequence (O60674 whole entry): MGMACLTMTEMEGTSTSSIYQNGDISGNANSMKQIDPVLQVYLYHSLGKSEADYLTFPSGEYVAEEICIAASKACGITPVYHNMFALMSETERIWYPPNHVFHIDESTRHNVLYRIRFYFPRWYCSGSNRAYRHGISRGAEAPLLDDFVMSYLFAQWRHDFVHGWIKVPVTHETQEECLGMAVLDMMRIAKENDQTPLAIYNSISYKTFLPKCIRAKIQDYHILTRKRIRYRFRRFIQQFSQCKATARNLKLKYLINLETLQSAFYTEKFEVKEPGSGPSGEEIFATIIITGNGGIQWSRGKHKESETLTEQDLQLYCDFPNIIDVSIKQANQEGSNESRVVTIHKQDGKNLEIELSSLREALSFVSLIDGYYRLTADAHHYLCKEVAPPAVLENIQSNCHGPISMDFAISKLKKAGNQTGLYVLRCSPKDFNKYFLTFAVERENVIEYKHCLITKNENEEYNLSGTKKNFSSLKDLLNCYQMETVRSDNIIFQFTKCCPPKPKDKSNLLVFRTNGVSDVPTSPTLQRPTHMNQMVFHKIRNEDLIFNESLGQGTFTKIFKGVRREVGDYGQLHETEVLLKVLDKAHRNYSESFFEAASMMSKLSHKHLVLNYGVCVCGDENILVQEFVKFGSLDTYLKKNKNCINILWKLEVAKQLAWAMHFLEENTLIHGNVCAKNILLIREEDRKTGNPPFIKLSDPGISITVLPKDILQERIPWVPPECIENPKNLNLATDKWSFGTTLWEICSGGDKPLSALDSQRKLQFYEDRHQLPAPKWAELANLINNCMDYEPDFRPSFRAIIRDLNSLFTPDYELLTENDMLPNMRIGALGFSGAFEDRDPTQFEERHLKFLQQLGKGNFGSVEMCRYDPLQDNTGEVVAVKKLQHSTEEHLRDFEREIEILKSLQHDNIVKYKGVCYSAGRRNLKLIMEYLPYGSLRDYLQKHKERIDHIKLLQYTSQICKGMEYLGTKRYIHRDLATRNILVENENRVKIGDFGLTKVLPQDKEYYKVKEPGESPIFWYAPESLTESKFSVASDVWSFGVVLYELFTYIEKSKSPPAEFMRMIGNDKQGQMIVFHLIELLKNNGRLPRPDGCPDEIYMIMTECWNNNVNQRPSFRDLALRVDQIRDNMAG
Outline: (§1)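 Compounds, serially diluted 3-fold from 5 μM, were preincubated 10 min with enzyme at ambient temperature before reaction in HEPES/Brij35/MgCl2/DTT buffer (1% DMSO final), tuned to 10% peptide conversion. After EDTA stop, FAM-peptide phosphorylation was measured by Caliper EZ Reader II; IC50 fitted from percent-inhibition curves.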

JAK1 = target: T3, JAK1 (Homo sapiens, UniProt P23458); assay: JAK1 microfluidic kinase assay (Caliper EZ Reader II, FAM labeled peptide substrate); type: biochemical
T3 construct: purchased Carna Biosciences
T3 sequence (P23458 whole entry): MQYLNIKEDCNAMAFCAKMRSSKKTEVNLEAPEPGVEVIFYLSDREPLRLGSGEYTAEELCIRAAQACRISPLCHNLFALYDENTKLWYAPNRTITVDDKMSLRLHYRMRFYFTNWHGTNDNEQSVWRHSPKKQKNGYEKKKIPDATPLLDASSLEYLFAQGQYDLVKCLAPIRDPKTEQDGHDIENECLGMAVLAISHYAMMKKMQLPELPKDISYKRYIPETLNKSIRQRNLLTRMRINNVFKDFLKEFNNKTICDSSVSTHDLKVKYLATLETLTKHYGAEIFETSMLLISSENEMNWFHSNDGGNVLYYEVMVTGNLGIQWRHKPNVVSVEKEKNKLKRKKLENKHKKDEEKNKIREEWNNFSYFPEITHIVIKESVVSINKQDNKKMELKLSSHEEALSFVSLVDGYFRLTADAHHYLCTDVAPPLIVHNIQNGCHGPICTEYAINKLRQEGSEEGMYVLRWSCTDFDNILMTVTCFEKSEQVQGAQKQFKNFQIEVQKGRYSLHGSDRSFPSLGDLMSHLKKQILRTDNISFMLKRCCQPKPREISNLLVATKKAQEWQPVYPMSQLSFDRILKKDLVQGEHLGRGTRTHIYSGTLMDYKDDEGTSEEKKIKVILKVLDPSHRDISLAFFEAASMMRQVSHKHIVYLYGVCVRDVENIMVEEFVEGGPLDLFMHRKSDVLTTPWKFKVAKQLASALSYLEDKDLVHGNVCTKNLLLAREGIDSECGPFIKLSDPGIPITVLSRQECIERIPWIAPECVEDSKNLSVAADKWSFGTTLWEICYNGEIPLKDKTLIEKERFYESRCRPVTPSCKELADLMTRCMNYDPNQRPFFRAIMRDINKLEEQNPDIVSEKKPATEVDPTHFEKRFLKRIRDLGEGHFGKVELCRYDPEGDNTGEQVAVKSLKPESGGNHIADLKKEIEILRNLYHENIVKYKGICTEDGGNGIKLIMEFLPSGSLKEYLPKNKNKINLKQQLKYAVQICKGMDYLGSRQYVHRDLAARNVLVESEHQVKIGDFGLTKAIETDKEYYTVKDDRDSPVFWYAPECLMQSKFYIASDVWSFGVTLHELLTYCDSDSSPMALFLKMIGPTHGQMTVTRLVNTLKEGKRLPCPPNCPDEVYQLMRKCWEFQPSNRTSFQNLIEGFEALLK
Outline: as §1

[1] = Liver microsomes study, Phase I stability (RLM); type: in vitro ADME, rat; conditions: pH 7.4; rat liver microsomes 0.5 mg/mL, 1 μM test article; read-out: RLM Clint
Outline: (§2)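 Phase I turnover was followed by LC/MS/MS of parent compound remaining at 0, 10, 30 and 90 min in NADPH-fortified rat or human microsomes, with cold acetonitrile quench. Half-life and intrinsic clearance were derived from the log-linear depletion slope and the inverse protein concentration.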

[2] = Liver microsomes study, Phase I stability (HLM); type: in vitro ADME, human; conditions: pH 7.4; human liver microsomes 0.5 mg/mL, 1 μM test article; read-out: HLM Clint
Outline: as §2

[3] = Rat pharmacokinetic study (intravenous and oral); type: in vivo; conditions: male, plasma, Sprague-Dawley rats, solution
Method: Pharmacokinetic profile of test articles in rodent were evaluated in fasted male ICR mouse and Sprague-Dawley rats. […] Typically, mice were dosed with 2 mg/kg and 10 mg/kg by intravenous injection and oral gavage, respectively. Rats were dosed with 1 mg/kg and 5 mg/kg by intravenous injection and oral gavage, respectively. Beagle dogs were dosed with 1 mg/kg and 5 mg/kg by intravenous injection and oral gavage, respectively. After dosing, blood samples were collected at each time point. For IV injection group, time points were set at 5, 15, 30 min, and then 1, 2, 4, 8 and 24 hours after dosing. For oral gavage group, timepoints were set at 15, 30 m, and then 1, 2, 4, 8, and 24 hours. Blood was collected into appropriately labeled tubes containing K2EDTA as the anticoagulant. Plasma was obtained within 1 hours of blood collection by centrifugation at 8000×g and 4° C. for 6 minutes, and then stored at −20° C. until analyzed by LCMS/MS for quantification.

[4] = Rat pharmacokinetic study (intravenous and oral); type: in vivo; conditions: Sprague-Dawley rats, oral, solution
JAK2V617F = target: T4, JAK2V617F (Homo sapiens, UniProt O60674, V617F); assay: JAK2V617F microfluidic kinase assay (Caliper EZ Reader II, FAM labeled peptide substrate); type: biochemical; conditions: JAK2V617F 2.5 nM, 1 mM ATP
T4 construct: purchased Carna Biosciences
T4 sequence (O60674 whole entry V617F): as the sequence (O60674 whole entry) above, with V617F counted along it
Outline: as §1

CYP1A2 = target: T5, CYP1A2 (Homo sapiens, UniProt P05177); assay: CYPs inhibition in pooled human liver microsomes, probe substrate Phenacetin; type: in vitro ADME
T5 construct: 0.2 mg/mL human liver microsomes was pre-incubated in 180 μL reaction mixture; from tissue; host or cells: pooled human liver microsomes
T5 sequence (P05177 1-516): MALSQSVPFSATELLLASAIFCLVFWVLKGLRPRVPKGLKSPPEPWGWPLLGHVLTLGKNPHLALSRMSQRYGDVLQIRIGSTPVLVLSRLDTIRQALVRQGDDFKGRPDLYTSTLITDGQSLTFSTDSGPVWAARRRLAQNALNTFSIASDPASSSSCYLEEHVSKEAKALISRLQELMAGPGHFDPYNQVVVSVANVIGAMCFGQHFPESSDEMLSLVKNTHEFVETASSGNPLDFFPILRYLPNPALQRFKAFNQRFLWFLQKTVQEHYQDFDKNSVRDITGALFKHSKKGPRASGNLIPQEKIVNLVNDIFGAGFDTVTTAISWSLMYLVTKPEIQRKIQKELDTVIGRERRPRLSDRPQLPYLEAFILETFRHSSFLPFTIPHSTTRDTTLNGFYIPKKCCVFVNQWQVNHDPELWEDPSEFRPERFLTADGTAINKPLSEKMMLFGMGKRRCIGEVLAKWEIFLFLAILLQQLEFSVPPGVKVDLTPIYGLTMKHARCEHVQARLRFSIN
Method: (§3) The inhibitory potential of test articles in pooled human liver microsomes was evaluated by the method using a cocktail of CYP substrates. […] For the negative control well, the test articles was replaced with 20 μL reaction buffer. After 10 min of pre-incubation at 37° C., 20 μL 10 mM NADPH cofactor was added to the pre-reaction mixtures. After another 10 min incubation, the reaction was stopped by adding 400 μL of ice cold acetonitrile solution containing tolbutamide and labetalol served as internal standards. The incubation mixtures were centrifuged at 4000×g for 20 min, and then the supernatants were analyzed by LC-MS/MS after dilution. SigmaPlot was applied to plot % control activity versus the test compound concentrations, and for non-linear regression analysis of the data. IC50 values of test articles were determined using 3-parameter logistic equation.

CYP3A4 = target: T6, CYP3A4 (Homo sapiens, UniProt P08684); assay: CYPs inhibition in pooled human liver microsomes, probe substrate Midazolam; type: in vitro ADME
T6 construct: 0.2 mg/mL human liver microsomes was pre-incubated in 180 μL reaction mixture; from tissue; host or cells: pooled human liver microsomes
Method: as §3

CYP2C19 = target: T7, CYP2C19 (Homo sapiens, UniProt P33261); assay: CYPs inhibition in pooled human liver microsomes, probe substrate S-mephenytoin; type: in vitro ADME
T7 construct: 0.2 mg/mL human liver microsomes was pre-incubated in 180 μL reaction mixture; from tissue; host or cells: pooled human liver microsomes
T7 sequence (P33261 whole entry): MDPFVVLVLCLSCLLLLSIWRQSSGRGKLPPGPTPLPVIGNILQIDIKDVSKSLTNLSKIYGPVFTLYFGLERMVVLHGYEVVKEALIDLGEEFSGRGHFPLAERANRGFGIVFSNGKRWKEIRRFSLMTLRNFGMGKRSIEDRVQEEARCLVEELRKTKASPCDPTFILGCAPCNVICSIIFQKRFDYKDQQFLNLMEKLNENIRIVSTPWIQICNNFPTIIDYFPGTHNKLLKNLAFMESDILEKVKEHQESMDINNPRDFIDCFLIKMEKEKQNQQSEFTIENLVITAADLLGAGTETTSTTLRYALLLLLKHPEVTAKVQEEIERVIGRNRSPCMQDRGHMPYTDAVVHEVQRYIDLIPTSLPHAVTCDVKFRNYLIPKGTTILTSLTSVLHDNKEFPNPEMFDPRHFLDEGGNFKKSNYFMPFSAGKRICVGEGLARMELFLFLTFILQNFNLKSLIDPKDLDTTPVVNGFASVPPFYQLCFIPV
Method: as §3

CYP2C9 = target: T8, CYP2C9 (Homo sapiens, UniProt P11712); assay: CYPs inhibition in pooled human liver microsomes, probe substrate Diclofenac; type: in vitro ADME
T8 construct: 0.2 mg/mL human liver microsomes was pre-incubated in 180 μL reaction mixture; from tissue; host or cells: pooled human liver microsomes
T8 sequence (P11712 whole entry): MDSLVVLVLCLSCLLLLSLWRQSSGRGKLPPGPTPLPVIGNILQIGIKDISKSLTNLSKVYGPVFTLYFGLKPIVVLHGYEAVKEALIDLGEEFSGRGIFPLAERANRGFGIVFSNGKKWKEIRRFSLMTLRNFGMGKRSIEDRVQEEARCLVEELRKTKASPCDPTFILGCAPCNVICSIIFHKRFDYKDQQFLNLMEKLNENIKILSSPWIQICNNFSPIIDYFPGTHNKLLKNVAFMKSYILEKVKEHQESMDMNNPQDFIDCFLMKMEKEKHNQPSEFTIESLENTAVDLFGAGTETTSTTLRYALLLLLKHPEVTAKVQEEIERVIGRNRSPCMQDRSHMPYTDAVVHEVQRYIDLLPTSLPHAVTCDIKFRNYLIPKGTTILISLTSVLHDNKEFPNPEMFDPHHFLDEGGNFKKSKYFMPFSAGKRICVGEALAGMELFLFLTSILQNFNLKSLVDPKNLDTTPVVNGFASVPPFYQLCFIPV
Method: as §3

CYP2D6 = target: T9, CYP2D6 (Homo sapiens, UniProt P10635); assay: CYPs inhibition in pooled human liver microsomes, probe substrate Dextromethorphan; type: in vitro ADME
T9 construct: 0.2 mg/mL human liver microsomes was pre-incubated in 180 μL reaction mixture; from tissue; host or cells: pooled human liver microsomes
T9 sequence (P10635 whole entry): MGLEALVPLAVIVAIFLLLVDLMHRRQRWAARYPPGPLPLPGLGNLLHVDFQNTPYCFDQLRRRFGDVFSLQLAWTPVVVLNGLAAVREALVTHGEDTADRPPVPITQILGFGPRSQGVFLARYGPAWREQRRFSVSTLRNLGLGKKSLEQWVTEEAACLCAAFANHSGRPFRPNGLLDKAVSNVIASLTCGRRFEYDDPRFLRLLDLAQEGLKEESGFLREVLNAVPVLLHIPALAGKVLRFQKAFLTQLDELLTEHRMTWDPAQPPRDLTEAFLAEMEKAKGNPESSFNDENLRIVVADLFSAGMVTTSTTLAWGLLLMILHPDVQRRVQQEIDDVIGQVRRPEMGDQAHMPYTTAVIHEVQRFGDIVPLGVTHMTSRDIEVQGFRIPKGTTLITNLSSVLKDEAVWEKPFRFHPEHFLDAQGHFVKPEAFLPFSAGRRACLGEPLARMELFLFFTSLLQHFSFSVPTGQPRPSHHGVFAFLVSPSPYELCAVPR
Method: as §3

TYK2 = target: T10, TYK2 (Homo sapiens, UniProt P29597); assay: TYK2 microfluidic kinase assay (Caliper EZ Reader II, FAM labeled peptide substrate); type: biochemical; conditions: IC50 TYK2 (10 nM) (Km ATP), TYK2 10 nM, Km ATP
T10 construct: purchased Carna Biosciences
T10 sequence (P29597 whole entry): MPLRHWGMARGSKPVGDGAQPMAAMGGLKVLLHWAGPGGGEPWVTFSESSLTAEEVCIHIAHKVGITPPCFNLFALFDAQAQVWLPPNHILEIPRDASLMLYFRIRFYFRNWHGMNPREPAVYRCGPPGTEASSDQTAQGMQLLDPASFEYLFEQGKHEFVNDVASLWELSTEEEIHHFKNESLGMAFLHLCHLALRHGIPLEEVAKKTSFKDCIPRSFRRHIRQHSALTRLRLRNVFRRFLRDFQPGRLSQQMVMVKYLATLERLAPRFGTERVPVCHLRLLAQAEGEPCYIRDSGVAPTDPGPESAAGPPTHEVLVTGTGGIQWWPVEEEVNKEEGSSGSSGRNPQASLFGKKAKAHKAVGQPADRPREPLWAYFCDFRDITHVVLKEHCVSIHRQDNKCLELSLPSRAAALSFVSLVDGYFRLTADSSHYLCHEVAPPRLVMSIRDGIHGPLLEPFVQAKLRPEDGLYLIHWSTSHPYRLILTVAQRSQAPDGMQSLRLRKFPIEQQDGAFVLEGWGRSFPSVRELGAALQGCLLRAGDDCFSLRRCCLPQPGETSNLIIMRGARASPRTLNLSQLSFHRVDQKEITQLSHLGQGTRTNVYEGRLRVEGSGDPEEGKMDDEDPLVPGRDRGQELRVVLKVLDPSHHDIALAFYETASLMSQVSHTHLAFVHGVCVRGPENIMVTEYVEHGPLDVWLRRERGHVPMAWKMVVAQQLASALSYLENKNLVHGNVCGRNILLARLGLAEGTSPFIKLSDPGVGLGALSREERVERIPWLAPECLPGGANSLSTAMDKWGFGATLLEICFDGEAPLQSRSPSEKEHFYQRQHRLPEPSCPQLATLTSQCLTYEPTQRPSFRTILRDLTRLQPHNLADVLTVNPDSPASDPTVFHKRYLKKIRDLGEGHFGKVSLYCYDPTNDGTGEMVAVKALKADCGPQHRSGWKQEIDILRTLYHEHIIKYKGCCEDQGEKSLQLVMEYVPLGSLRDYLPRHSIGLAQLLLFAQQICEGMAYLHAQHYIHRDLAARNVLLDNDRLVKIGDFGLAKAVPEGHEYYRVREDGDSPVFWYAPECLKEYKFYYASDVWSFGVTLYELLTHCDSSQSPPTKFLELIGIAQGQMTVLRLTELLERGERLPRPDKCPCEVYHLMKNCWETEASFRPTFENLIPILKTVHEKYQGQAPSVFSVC
Outline: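 Human JAK enzymes in 50 mM HEPES, 0.01% Brij35, 10 mM MgCl2, 2 mM DTT, tuned to 10% conversion of FAM-peptide; compounds (3-fold dilutions, top 5 μM, 1% DMSO) pre-incubated 10 min. Reaction times: JAK1 120 min, JAK2 20 min, JAK2V617F 30 min, TYK2 10 min; EDTA stop, microfluidic conversion read, IC50 from % inhibition curves.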

[5] = IC50 JAK2 ([…]) (1 mM ATP), 1 mM ATP
[6] = IC50 JAK2 ([…]) (Km ATP), Km ATP
[7] = IC50 JAK1 (5 nM) (1 m MATP), JAK1 5 nM, 1 mM ATP

IC50 (FLT3D835Y) | IC50 (JAK2; [5]) | IC50 (JAK2; [6]) | IC50 (JAK1; [7]) | microsomal CLint at 1 μM [1] | microsomal CLint at 1 μM [2] | AUC ([3]; intravenous, 1 mg/kg) | Vd ([3]; intravenous, 1 mg/kg) | clearance ([3]; intravenous, 1 mg/kg) | half-life ([3]; intravenous, 1 mg/kg) | IC50 (JAK2V617F) | Structure (SMILES) | other results
57.4 nM | 78.7 nM | 2.7 nM | 34.3 nM | 120 µL/min/mg | 1.5 µL/min/mg | 880 ng·h/mL | 0.6 L/kg | 18.9 mL/min/kg | 21.6 min |  | Cc1cnc(Nc2cnn(C)c2)nc1-c1ccc(C(=O)NCC(C)(C)C#N)cc1 [Example 13, N-(2-Cyano-2-methylpropyl)-4-(5-methyl-2-((1-methyl-1H-pyrazol-4-yl)amino)pyrimidin-4-yl)benzamide] | 
 |  |  | 18.7 nM | 27.5 µL/min/mg | 54.8 µL/min/mg | 951 ng·h/mL | 0.7 L/kg | 17.5 mL/min/kg | 27.6 min | 5.37 nM | C[C@@H](C#N)NC(=O)c1ccc(-c2nc(Nc3cnn(C4CCOCC4)c3)ncc2Cl)cc1 [Example 39, (S)-4-(5-chloro-2-((1-(tetrahydro-2H-pyran-4-yl)-1H-pyrazol-4-yl)amino)pyrimidin-4-yl)-N-(1-cyanoethyl)benzamide] | F ([4]; 10 mg/kg): 11.99%; AUC ([4]; male, rat, plasma, 10 mg/kg): 1090 ng·h/mL; Cmax ([4]; male, rat, plasma, 10 mg/kg): 346 ng/mL; half-life ([4]; male, rat, plasma, 10 mg/kg): 106 min
 | 1.34 nM | 0.42 nM |  | 15 µL/min/mg | 14.9 µL/min/mg |  |  |  |  | 37.8 nM | Cc1cnc(Nc2cnn(C3CCN(CC#N)CC3)c2)nc1-c1ccc(C(=O)NCC#N)cc1 [Example 1, N-(Cyanomethyl)-4-(2-((1-(1-(cyanomethyl)piperidin-4-yl)-1H-pyrazol-4-yl)amino)-5-methylpyrimidin-4-yl)benzamide] | IC50 (CYP1A2): > 50000 nM; IC50 (JAK1; IC50 JAK1 (10 nM) (Km ATP), JAK1 10 nM, Km ATP): 1.79 nM; IC50 (CYP3A4): > 50000 nM; IC50 (CYP2C19): > 50000 nM; IC50 (CYP2C9): > 50000 nM; IC50 (CYP2D6): > 50000 nM; IC50 (TYK2): 0.84 nM
7.87 nM | < 0.25 nM |  | 13 nM | 61 µL/min/mg | 77.2 µL/min/mg | 2880 ng·h/mL | 0.28 L/kg | 6.3 mL/min/kg | 33.6 min | < 0.25 nM | Cc1cnc(Nc2cnn(C3CCN(C(=O)C4(C)CC4)CC3)c2)nc1-c1ccc(C(=O)NCC#N)cc1 [Example 38, N-(cyanomethyl)-4-(5-methyl-2-((1-(1-(1-methylcyclopropanecarbonyl)piperidin-4-yl)-1H-pyrazol-4-yl)amino)pyrimidin-4-yl)benzamide] | F ([4]; 5 mg/kg): 8.36%; AUC ([3]; oral, 5 mg/kg): 1170 ng·h/mL; Cmax ([3]; oral, 5 mg/kg): 924 ng/mL; half-life ([3]; oral, 5 mg/kg): 84 min

Source: US12595253B2, “Benzamides of pyrazolylamino-pyrimidinyl derivatives, and compositions and methods thereof” (LYNK PHARMACEUTICALS CO. LTD., priority 2019, dated 2026)
